According to US20210386777A1, “GAS MIXTURES CONTAINING LOW CONC[…] XENON AND ARGON PROVIDE NEURO[…] INHIBITING THE CATALYTIC ACTIVITY OF TH[…]” ([…], priority 2017, published 2021):

Assays:
[1] = test system: brain slices exposed to OGD; assay: Lactate dehydrogenase (LDH) release induced by oxygen-glucose deprivation (OGD) in brain slices; assay type: cell-based, rat
Description: Rats were killed by decapitation under halothane anesthesia. The brains were removed and placed in ice-cold freshly prepared artificial cerebrospinal fluid (aCSF). Coronal brain slices (400 μm thickness) including the striatum (anteriority: from +1.2 to +2 mm from bregma) were cut using a tissue chopper (Mickie Laboratory Engineering Co., Gomshall, Surrey, UK).
The effects of gas mixtures containing xenon and argon on the release of lactate dehydrogenase (LDH) induced by OGD were assessed as described previously. Before being used, brain slices were transferred into individual vials with 1.3 ml of freshly prepared oxygenated aCSF containing 120 mM NaCl, 2 mM KCl, 2 mM CaCl2, 26 mM NaHCO3, 1.19 mM MgSO4, 1.18 mM KH2PO4, 11 mM d-glucose, and 30 mM HEPES and allowed to recover at room temperature for 45 min. Then, brain slices were placed at 36±0.5° C. into individual vials containing 1.3 ml of freshly prepared aCSF, saturated, and continuously bubbled with 100% oxygen (25 ml/min per vial). After a 30-min period, the incubation aCSF solution was renewed with oxygenated aCSF maintained at 36° C., and the slices were then incubated for 1 h to allow recording of basal levels of LDH. Whereas control slices were incubated for an additional 20-min period in the same conditions, those corresponding to the ischemic group were incubated in a glucose-free solution, saturated, and continuously bubbled with 100% nitrogen (OGD slices). After this 20-min period of OGD, to mimic reperfusion and treatment, the medium was replaced in all groups with freshly prepared aCSF solution, saturated and continuously bubbled with either medical air or gas mixtures containing xenon and argon in volume proportions as described below (see gas pharmacology section; n=20-36).
Xenon, argon, nitrogen, and oxygen were purchased from Air Liquide Sante (Paris, France). […]

[2] = test system: rats injected with intracerebral NMDA; assay: NMDA-induced neuronal death in vivo (brain damage after intracerebral injection of NMDA); design: species or system rat
Description: The effects of gas mixtures containing xenon and argon on the […] were assessed as described previously. On the day of surgery, rats were anesthetized with 1.5% halothane in oxygen alone in an anesthesia box and mounted on a stereotactic apparatus with the incisor bar set at 3.9 mm below the horizontal zero. A burr hole was drilled and a micropipette (less than […] at the tip) was lowered into the right striatum (anterior, 0.6 mm; lateral, 3.0 mm; ventral, 5.8 mm, from bregma) to allow injection of 70 nmol of NMDA in 1 μl of phosphate buffered solution (pH 7.4) over a 2-min period. After an additional 5-min period, the micropipette was removed, and the wounds were then sutured. During surgery, body temperature was kept at 37 ±0.5° C. with a feedback-controlled thermostatic heating pad (Harvard Apparatus Limited, Edenbridge, UK). The animals woke up in their home cage after about 10 min, where they were given free access to food and water. Sixty minutes after NMDA administration, rats were treated with medical air or gas mixtures containing xenon and argon (see gas pharmacological section). The number of rats per group was n=7-11.
(§1) Xenon, argon, nitrogen, and oxygen were purchased from Air Liquide Sante (Paris, France). Medical air composed of 75 vol % nitrogen and 25 vol % oxygen, and xenon and argon mixtures containing 37.5 vol % xenon and 37.5 vol % argon (Xe—Ar-37.5), 25 vol % xenon and 25 vol % argon (Xe—Ar-25) or 15 vol % xenon and 15 vol % argon (Xe—Ar-15)—with 25 vol % oxygen and the remainder being nitrogen when needed—were obtained using computer-driven gas mass flowmeters, and an oxygen analyzer to check that the gas mixtures used were not hypoxic.

[3] = biological target: T1, recombinant form of human tPA (Homo sapiens, UniProt P00750); assay: In vitro tPA catalytic activity assay (initial rate method, chromogenic substrate); assay type: biochemical; conditions: for catalytic efficiency of tPA: single gas alone at 25 vol %
T1 construct: purchased Boehringer Ingelheim Actilyse
T1 sequence (P00750 36-562): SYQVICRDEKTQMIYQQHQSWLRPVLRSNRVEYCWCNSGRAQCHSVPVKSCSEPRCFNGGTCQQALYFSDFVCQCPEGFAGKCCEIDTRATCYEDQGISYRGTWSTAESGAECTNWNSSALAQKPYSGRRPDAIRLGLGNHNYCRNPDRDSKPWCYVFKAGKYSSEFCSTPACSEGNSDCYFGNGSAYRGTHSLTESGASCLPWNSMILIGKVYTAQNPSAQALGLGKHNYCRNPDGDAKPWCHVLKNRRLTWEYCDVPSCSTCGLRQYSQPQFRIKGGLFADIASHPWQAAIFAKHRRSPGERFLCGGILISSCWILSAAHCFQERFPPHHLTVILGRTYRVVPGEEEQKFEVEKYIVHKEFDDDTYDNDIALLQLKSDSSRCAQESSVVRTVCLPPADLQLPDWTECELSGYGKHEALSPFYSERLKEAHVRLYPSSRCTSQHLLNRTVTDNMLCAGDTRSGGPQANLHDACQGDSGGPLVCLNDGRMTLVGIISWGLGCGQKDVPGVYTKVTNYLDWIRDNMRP
Description: […] The recombinant form of human tPA (Actilyse®; Boehringer Ingelheim, Ingelheim am Rhein, Germany) and its specific chromogenic substrate methylsulfonyl-D-phenyl-glycil-arginine-7-amino-4-methylcoumarin acetate (Spectrozyme® XF, product 444; American Diagnostica, Stamford, CT) were diluted separately in 1 ml distilled water in 1.5-ml sterile tubes. […] The catalytic efficiency of tPA was assessed by the initial rate method by incubating 50 μl tPA with 50 μl substrate in a spectrofluorometer microplate reader set at 37° C.
as §1

tPA and rtPA = tPA and rtPA (Homo sapiens, UniProt P00750); conditions: cited from earlier work
tPA and rtPA, sequence (P00750 36-562): as above

elastase = elastase (Sus scrofa, UniProt P00772); conditions: cited from earlier work; for binding to the active site of elastase: serine protease used as a model of tPA
elastase, sequence (P00772 27-266): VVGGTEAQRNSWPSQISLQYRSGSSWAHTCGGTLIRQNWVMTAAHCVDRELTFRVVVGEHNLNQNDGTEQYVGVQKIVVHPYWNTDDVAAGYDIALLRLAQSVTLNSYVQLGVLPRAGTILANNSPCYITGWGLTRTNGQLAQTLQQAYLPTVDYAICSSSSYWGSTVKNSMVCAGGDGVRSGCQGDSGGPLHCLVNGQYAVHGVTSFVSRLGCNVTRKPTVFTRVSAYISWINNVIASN

[4] = test system: rat model of thromboembolic stroke; conditions: intraischemic administration; cited from earlier work
[5] = cited from earlier work

Structure (SMILES)	OGD-induced LDH release ([1]; single gas alone at 15 vol %)	OGD-induced LDH release ([1]; single gas alone at 25 vol %)	NMDA-induced brain damage ([2]; single gas alone at 15 vol %)	NMDA-induced brain damage ([2]; single gas alone at 25 vol %)	tPA-induced catalytic activity ([3]; argon alone, concentration not given)	catalytic efficiency of tPA [3]	inhibiting action on the thrombolytic properties of tPA and rtPA (tPA and rtPA; neuroprotective concentrations of 50 vol % and above)	affinity for elastase relative to xenon (elastase)	binding to the active site of elastase (elastase)	inhibition of tPA and rtPA (tPA and rtPA; xenon alone)	tPA-induced thrombolysis and subsequent reduction of ischemic brain damage [4]	neuroprotection ([5]; subanesthetic concentrations of 37.5 vol % or 50 vol %)	possible therapeutic window of neuroprotection ([5]; xenon alone)
[Ar] [argon]	also had no effect by itself on OGD-induced LDH release	had no effect by itself on OGD-induced LDH release	also had no effect by itself on NMDA-induced brain damage	had no effect by itself on NMDA-induced brain damage	has no effect	decreased it significantly	shows no inhibiting action	lower affinity than xenon	bind to the active site of elastase				
[Xe] [xenon]	had no effect by itself on OGD-induced LDH release		had no effect by itself on NMDA-induced brain damage			had no effect on the catalytic efficiency of tPA			bind to the active site of elastase	potent inhibitor of tPA and rtPA	dose-dependently inhibits	provided neuroprotection	about 8 h
